Our source for the inhibition, Activity and EC50 values is ChEMBL document CHEMBL3286219, “NF-κB inhibitory activity of polyoxygenated steroids from the Vietnamese soft coral Sarcophyton pauciplicatum” (Bioorg Med Chem Lett, 2014).

Common to all, as to type: cell-based
Data set [1] concerns the target T1, Nuclear factor NF-kappa-B complex (Homo sapiens) (UniProt Q00653+P19838+Q04206). As to the kind of experiment: Inhibition of NF-kappaB activation in human HaCaT cells assessed as inhibition of TNFalpha/IFNgamma-induced transcriptional activity at 50 uM after 24 hrs by Renilla luciferase assay.
The subject of another data set is HaCaT. The data set can be described thus: Cytotoxicity against human HaCaT cells at 5 to 20 uM after 24 hrs by MTS assay. On the technique in general: Formazan colour is commonly taken as a measure of viable cells.
The target in data set [2] is Nuclear factor NF-kappa-B complex (Homo sapiens, UniProt P19838+Q00653+Q04206). The data set can be described thus: Inhibition of NF-kappaB activation in human HaCaT cells assessed as inhibition of TNFalpha/IFNgamma-induced transcriptional activity after 24 hrs by Renilla luciferase assay.
For data set [3], the target named is T1, Nuclear factor NF-kappa-B complex (Homo sapiens). The data set can be described thus: Inhibition of NF-kappaB activation in human HaCaT cells assessed as inhibition of TNFalpha/IFNgamma-induced ICAM-1 mRNA expression after 1 hr by RT-PCR.
Data set [4] shares this target. The data set can be described thus: Inhibition of NF-kappaB activation in human HaCaT cells assessed as inhibition of TNFalpha/IFNgamma-induced iNOS mRNA expression after 1 hr by RT-PCR.
Data set [5] shares this target. As to the kind of experiment: Inhibition of NF-kappaB activation in human HaCaT cells assessed as inhibition of TNFalpha/IFNgamma-induced COX2 mRNA expression after 1 hr by RT-PCR.

Activity calls are given as the source filed them. The rule behind the calls is not given here.

T1 sequence (P19838 whole entry, looked up): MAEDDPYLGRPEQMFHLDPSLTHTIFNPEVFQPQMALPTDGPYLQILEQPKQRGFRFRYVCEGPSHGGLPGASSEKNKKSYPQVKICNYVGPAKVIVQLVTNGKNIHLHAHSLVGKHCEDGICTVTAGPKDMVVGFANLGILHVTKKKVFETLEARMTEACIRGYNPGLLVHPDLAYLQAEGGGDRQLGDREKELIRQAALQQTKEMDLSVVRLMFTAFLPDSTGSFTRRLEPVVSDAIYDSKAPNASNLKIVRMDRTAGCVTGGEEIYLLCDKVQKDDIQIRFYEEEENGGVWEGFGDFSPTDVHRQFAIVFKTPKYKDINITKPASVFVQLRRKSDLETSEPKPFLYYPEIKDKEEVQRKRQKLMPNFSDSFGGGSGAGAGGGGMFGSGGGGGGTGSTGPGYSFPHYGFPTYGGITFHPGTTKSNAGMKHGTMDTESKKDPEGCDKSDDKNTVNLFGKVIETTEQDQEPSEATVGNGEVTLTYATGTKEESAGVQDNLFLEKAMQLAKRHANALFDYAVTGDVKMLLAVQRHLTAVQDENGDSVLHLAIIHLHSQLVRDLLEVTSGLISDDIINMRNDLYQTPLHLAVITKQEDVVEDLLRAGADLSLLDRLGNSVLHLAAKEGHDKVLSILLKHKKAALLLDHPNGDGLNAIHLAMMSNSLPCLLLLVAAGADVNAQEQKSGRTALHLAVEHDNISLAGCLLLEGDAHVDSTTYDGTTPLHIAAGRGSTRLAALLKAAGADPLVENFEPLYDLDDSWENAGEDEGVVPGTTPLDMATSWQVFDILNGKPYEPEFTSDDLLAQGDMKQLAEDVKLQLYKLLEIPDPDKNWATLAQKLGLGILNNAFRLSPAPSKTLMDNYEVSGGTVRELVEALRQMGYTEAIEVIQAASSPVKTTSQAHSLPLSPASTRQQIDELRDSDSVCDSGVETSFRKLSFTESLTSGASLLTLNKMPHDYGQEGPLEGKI
T1 sequence (Q00653 whole entry, looked up): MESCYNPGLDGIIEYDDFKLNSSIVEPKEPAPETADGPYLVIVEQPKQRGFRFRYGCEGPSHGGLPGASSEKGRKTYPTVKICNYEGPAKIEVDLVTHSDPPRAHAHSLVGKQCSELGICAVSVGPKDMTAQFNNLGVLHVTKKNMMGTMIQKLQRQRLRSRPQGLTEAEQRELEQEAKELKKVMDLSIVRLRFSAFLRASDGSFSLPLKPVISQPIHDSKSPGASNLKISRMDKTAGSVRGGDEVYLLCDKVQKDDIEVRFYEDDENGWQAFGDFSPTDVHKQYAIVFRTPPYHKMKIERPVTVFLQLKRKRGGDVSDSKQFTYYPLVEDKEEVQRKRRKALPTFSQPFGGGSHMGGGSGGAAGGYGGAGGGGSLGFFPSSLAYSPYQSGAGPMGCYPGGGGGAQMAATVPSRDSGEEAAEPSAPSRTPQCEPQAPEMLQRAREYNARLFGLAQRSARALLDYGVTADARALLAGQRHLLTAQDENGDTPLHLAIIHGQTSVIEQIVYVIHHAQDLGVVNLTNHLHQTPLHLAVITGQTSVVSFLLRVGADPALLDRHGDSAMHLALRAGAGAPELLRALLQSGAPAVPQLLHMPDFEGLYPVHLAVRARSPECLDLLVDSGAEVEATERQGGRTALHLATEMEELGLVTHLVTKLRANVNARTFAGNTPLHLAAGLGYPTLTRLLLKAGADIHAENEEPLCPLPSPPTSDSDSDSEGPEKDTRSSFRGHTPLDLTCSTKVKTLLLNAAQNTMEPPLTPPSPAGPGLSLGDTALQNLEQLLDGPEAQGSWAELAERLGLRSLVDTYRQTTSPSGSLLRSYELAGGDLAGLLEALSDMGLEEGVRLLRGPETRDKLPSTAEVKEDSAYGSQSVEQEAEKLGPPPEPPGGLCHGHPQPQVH
T1 sequence (Q04206 whole entry, looked up): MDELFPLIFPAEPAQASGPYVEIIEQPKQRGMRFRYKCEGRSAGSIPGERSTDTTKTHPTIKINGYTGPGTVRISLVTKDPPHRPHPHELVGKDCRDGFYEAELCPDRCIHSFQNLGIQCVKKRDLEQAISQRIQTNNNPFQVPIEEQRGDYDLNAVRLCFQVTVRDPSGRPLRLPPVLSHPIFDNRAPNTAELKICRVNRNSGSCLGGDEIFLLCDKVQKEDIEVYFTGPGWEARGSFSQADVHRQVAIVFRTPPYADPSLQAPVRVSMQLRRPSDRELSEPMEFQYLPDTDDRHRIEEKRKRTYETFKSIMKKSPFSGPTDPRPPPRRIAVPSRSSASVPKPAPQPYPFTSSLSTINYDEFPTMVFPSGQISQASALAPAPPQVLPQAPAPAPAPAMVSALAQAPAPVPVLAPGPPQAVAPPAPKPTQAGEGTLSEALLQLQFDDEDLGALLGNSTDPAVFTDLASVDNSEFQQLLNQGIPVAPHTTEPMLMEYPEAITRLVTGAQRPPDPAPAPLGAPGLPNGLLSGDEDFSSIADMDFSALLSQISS
Sequence of Nuclear factor NF-kappa-B complex (P19838 1-433 limits assumed): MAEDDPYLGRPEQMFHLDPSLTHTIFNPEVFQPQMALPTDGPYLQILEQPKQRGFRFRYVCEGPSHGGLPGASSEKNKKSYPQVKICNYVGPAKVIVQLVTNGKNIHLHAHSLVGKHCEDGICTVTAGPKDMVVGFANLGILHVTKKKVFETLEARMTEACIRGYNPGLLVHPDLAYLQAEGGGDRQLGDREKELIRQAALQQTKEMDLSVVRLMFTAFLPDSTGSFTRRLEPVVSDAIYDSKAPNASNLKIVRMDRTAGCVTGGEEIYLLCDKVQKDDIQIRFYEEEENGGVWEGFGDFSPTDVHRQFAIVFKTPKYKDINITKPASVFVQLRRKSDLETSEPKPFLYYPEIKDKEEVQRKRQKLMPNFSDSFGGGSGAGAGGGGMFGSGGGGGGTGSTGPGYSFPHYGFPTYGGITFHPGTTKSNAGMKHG
Sequence of Nuclear factor NF-kappa-B complex (Q00653 1-454 limits assumed): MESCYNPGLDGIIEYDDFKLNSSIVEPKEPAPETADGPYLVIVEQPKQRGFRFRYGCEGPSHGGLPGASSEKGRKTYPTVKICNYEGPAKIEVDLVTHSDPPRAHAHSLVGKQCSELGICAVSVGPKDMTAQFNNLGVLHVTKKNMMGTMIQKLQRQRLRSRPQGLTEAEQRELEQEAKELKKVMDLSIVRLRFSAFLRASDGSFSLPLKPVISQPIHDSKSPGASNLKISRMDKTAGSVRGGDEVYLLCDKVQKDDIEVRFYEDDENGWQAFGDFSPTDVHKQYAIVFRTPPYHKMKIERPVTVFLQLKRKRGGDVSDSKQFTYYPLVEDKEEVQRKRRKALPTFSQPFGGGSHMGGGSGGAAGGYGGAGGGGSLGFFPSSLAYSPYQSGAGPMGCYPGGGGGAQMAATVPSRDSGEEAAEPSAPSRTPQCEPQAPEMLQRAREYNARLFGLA
Sequence of Nuclear factor NF-kappa-B complex (Q04206 whole entry): as the sequence (Q04206 whole entry, looked up) above

Turning to `C=C(C)[C@@H](C)CC[C@@H](C)[C@H]1CC[C@H]2[C@@H]3C[C@@H](O)[C@@]4(O)C[C@@H](O)C[C@@H](O)[C@]4(C)[C@H]3CC[C@]12C`, the inhibition result in data set [1] was “Active”. Besides, the Activity result in the data set on HaCaT is “Non-toxic”.
One may read the EC50 as the midpoint of the concentration-response curve. On to `CC(=O)OC(C)(C)[C@@H](C)CC[C@@H](C)[C@H]1CC[C@H]2[C@@H]3C[C@@H](O)[C@@]4(O)C[C@@H](O)C[C@@H](O)[C@]4(C)[C@H]3CC[C@]12C`, for which the EC50 in data set [2] turned out to be 26.1 µM. In addition, in the data set on HaCaT, the Activity result was “Non-toxic”.
For the molecule `CC(=O)OC(C)(C)[C@@H](C)/C=C/[C@@H](C)[C@H]1CC[C@H]2[C@@H]3C[C@@H](O)[C@@]4(O)C[C@@H](O)C[C@@H](O)[C@]4(C)[C@H]3CC[C@]12C`, the inhibition result in data set [3], in data set [4] and in data set [5] was “Dose-dependent effect” throughout. Further, the EC50 in data set [2] was found to be 8.27 µM. In addition, in the data set on HaCaT, the Activity entry is on record as “Non-toxic”.
